According to patent US20250214977A1, “STAT6 INHIBITORS AND USES THEREOF” (Kymera Therapeutics, Inc., priority 2024, published 2025):

Tested on: Phosphorylation of STAT6 in human A549 cells
Experiment: Phosphorylated STAT6 (pSTAT6) flow cytometry assay in human A549 cells
Assay type: cell-based
Conditions: read-out: STAT6 IL4 pSTAT6 assay in A549 cells: Average IC50
Text: Example 3. Phosphorylated STAT6 (pSTAT6) Flow Cytometry Assay in Human A549 Cells
Phosphorylation of STAT6 in human A549 cells was quantitatively measured using flow cytometry technology.

IC50	Compound
100 to 1000 nM	CCn1c(N2CCN(C(=O)c3cc4c(-c5ccccc5OC)cc(C5=CCCN(C(=O)CCn6ccnn6)C5)c(F)c4[nH]3)CC2)cc2ccccc21 [Example I-967]
< 100 nM	COc1cc(F)cnc1N1CCN(C(=O)c2cc3c(C4=CCCCC4)cc(C4=CCCN(C(=O)CCn5ccnn5)C4)c(F)c3[nH]2)CC1 [Example I-1135]
100 to 1000 nM	CN(C)C(=O)c1cc2cc(C3=CCCN(C(=O)CCn4ccnn4)C3)cnc2[nH]1 [Example I-819]
< 100 nM	COc1ccccc1-c1cc(C2=CCCN(C(=O)CCn3ccnn3)C2)c(F)c2[nH]c(C(=O)N3CCC(Nc4ncccn4)CC3)cc12 [Example I-849]
> 100000 nM	COc1ccncc1-c1cc(C2=CCCN(C(=O)CCn3ccnn3)C2)c(F)c2[nH]c(C(=O)N3CCN(c4ccccc4)CC3)cc12 [Example I-400]
< 100 nM	COc1ccccc1-c1cc(C2=CCCN(C(=O)CCn3ccnn3)C2)c(F)c2[nH]c(C(=O)N3CCN(c4cccc5nonc45)CC3)cc12 [Example I-951]
< 100 nM	COc1cc(F)cnc1N1CCN(C(=O)c2cc3c(-c4ccnc(OC(F)F)c4)cc(C4=CCCN(C(=O)CCn5ccnn5)C4)c(F)c3[nH]2)CC1 [Example I-653]
> 100000 nM	COc1cc(F)cnc1N1CCN(C(=O)c2cc3c(C4CC4)cc(C4=CCCN(C(=O)CCn5ccnn5)C4)c(F)c3[nH]2)CC1 [Example I-694]
> 100000 nM	COc1ccncc1-c1cc(C2=CCCN(C(=O)CCn3ccnn3)C2)c(F)c2[nH]c(C(=O)N3CCN(c4nc(C)ccc4OC)CC3)cc12 [Example I-433]
100 to 1000 nM	CC(=O)N1CCC=C(c2cc(-c3cc(C#N)ccc3C)c3cc(C(=O)N(C)C)[nH]c3c2F)C1 [Example I-884]
< 100 nM	COc1ccccc1-c1cc(C2=CCCN(C(=O)CCn3ccnn3)C2)c(F)c2[nH]c(C(=O)N3CCN(c4ncccc4C#N)CC3)cc12 [Example I-328]
< 100 nM	COc1cc(F)cnc1N1CCN(C(=O)c2cc3c(-c4ccc(C(=O)N(C)C)cc4)cc(C4=CCCN(C(=O)CCn5ccnn5)C4)c(F)c3[nH]2)CC1 [Example I-1165]
< 100 nM	COc1cc(F)cnc1N1CCN(C(=O)c2cc3c(-c4ccc(C)c(C#N)c4)cc(C4=CCCN(C(=O)CCn5ccnn5)C4)c(F)c3[nH]2)CC1 [Example I-648]
100 to 1000 nM	Cc1cnnn1CCC(=O)N1CCC=C(c2ccc3cc(C(=O)N(C)C)[nH]c3c2)C1 [Example I-827]
< 100 nM	COc1ccccc1-c1cc(C2=CCCN(C(=O)CCn3ccnn3)C2)c(F)c2[nH]c(C(=O)N3CCN(c4cc(F)ccn4)CC3)cc12 [Example I-934]
< 100 nM	CCN1CCCCC1c1cc(C2=CCCN(C(=O)CCn3ccnn3)C2)c(F)c2[nH]c(C(=O)N3CCN(c4ncc(F)cc4OC)CC3)cc12 (stereo not drawn) [Example I-784]
100 to 1000 nM	CN(C)C(=O)c1cc2ccc(C3=CCCN(C(=O)CCc4ccon4)C3)cc2[nH]1 [Example I-831]
> 100000 nM	COc1cccnc1N1CCN(C(=O)c2cc3c(-c4cccc(Cl)c4OC)cc(C4=CCCN(C(=O)CCn5ccnn5)C4)c(F)c3[nH]2)CC1 [Example I-411]
10000 to 100000 nM	COc1ncccc1-c1cc(C(=O)N2Cc3cnn(C)c3C2)cc2cc(C3=CCCN(C(=O)CCn4ccnn4)C3)n(CC3CC3)c12 [Example I-717]

IC50	Compound
< 100 nM	COc1ccc(C)cc1-c1cc(C2=CCCN(C(=O)CCn3ccnn3)C2)cc2[nH]c(C(=O)N(C)C)cc12 [Example I-1057]
< 100 nM	COc1ccc(F)cc1-c1cc(C2=CCCN(C(=O)CCn3ccnn3)C2)c(F)c2[nH]c(C(=O)N3CCN(c4ccccc4OC)CC3)cc12 [Example I-566]
> 100000 nM	CCc1nccn1-c1cc(C2=CCCN(C(=O)CCn3ccnn3)C2)c(F)c2[nH]c(C(=O)N3CCN(c4ncccc4OC)CC3)cc12 [Example I-692]
< 100 nM	CNc1ccc(-c2cc(C3=CCCN(C(=O)CCn4ccnn4)C3)cc3[nH]c(C(=O)N(C)C)cc23)c(C)c1 [Example I-1053]
< 100 nM	COc1cc(F)cnc1N1CCN(C(=O)c2cc3c(-c4cnn(C5CC5)c4)cc(C4=CCCN(C(=O)CCn5ccnn5)C4)c(F)c3[nH]2)CC1 [Example I-1151]
< 100 nM	COc1ccncc1-c1cc(C2=CCCN(C(=O)CCn3ccnn3)C2)c(F)c2[nH]c(C(=O)N3CCN(c4ccc(F)cc4OC)CC3)cc12 [Example I-482]
< 100 nM	Cc1c[nH]c2ncc(-c3cc(C4=CCCN(C(=O)CCn5ccnn5)C4)c(F)c4[nH]c(C(=O)N(C)C)cc34)cc12 [Example I-1101]
< 100 nM	(1R)-3-[4-(4-ethyl-3-pyridyl)-7-fluoro-2-[4-(5-fluoro-3-methoxy-2-pyridyl)piperazine-1-carbonyl]-1H-indol-6-yl]cyclohex-3-ene-1-carboxylic acid [Example I-810]
100 to 1000 nM	COc1ccccc1-c1cc(C2=CCCN(C(=O)CCn3ccnn3)C2)c(F)c2[nH]c(C(=O)N3CCN(c4cc5cnn(C)c5cc4C)CC3)cc12 [Example I-925]
< 100 nM	COc1ccccc1-c1cc(C2=CCCN(C(=O)CCn3ccnn3)C2)c(F)c2[nH]c(C(=O)N3CCN(CCCF)CC3)cc12 [Example I-843]
< 100 nM	COc1ccncc1-c1cc(C2=CCCN(C(=O)CCn3ccnn3)C2)c(F)c2[nH]c(C(=O)N3CC=C(c4ccc(F)c(OC)n4)CC3)cc12 [Example I-434]
< 100 nM	COc1cnccc1-c1cc(C2=CCCN(C(=O)CCn3ccnn3)C2)c(F)c2[nH]c(C(=O)N3CCN(C4CC4)CC3)cc12 [Example I-605]
< 100 nM	CCc1ccncc1-c1cc(C2=CCCN(C(=O)CCn3ccnn3)C2)c(F)c2[nH]c(C(=O)N3CCN(c4ncccc4OC)CC3)cc12 [Example I-561]
< 100 nM	COc1ccccc1-c1cc(C2=CCCN(C(=O)CCn3ccnn3)C2)c(F)c2[nH]c(C(=O)N3CCN(c4cc(F)c5nc(C)n(C(C)C)c5c4)CC3)cc12 [Example I-340]
< 100 nM	COc1cnccc1-c1cc(C(=O)N2CCN(c3ncc(F)cc3OC)CC2)cc2cc(C3=CCCN(C(=O)CCn4ccnn4)C3)n(CC3CC3)c12 [Example I-729]
< 100 nM	COc1cnccc1-c1cc(C2=CCCN(C(=O)CCn3ccnn3)C2)cc2[nH]c(C(=O)N(C)C)cc12 [Example I-1060]
< 100 nM	CCc1ccc(-c2cc(C(=O)N3CCN(c4ncc(F)cc4OC)CC3)cc3cc(C4=CCCN(C(=O)C5CC5C(=O)O)C4)n(CC4CC4)c23)c(C)n1 (stereo not drawn) [Example I-545]
100 to 1000 nM	COc1ccccc1-c1cc(C2=CCCN(C(=O)CCn3ccnn3)C2)c(F)c2[nH]c(C(=O)N(C)C3Cc4ccccc4C3)cc12 [Example I-978]
< 100 nM	CCc1ccncc1-c1cc(C2=CCCN(C(=O)CCn3ccnn3)C2)c(F)c2[nH]c(C(=O)N3CCN(c4ncc(Cl)cc4OC)CC3)cc12 [Example I-472]

IC50	Compound
< 100 nM	COc1ccncc1-c1cc(C2=CCCN(C(=O)CCn3ccnn3)C2)c(F)c2[nH]c(C(=O)N3CCN(c4ncc(C(F)(F)F)cc4OC)CC3)cc12 [Example I-445]
< 100 nM	CCSc1ccccc1-c1cc(C2=CCCN(C(=O)CCn3ccnn3)C2)c(F)c2[nH]c(C(=O)N3CCN(c4ncc(F)cc4OC)CC3)cc12 [Example I-679]
< 100 nM	COc1ccncc1-c1cc(C2=CCCN(C(=O)CCn3ccnn3)C2)c(F)c2[nH]c(C(=O)N3CCN(c4ncc(C(C)C)cc4OC)CC3)cc12 [Example I-454]
< 100 nM	CCc1cc(C)ncc1-c1cc(C2=CCCN(C(=O)CCc3nccs3)C2)c(F)c2[nH]c(C(=O)N3CCN(c4nc(C)ccc4OC)CC3)cc12 [Example I-526]
< 100 nM	COc1cc(F)cnc1N1CCN(C(=O)c2cc3c(-c4ccc5c(c4)c(C4CC4)nn5C)cc(C4=CCCN(C(=O)CCn5ccnn5)C4)c(F)c3[nH]2)CC1 [Example I-622]
100 to 1000 nM	COc1ccccc1-c1cc(C2=CCCN(C(=O)CCn3ccnn3)C2)c(F)c2[nH]c(C(=O)N3CCN(c4c(C)cccc4OC)CC3)cc12 [Example I-913]
> 100000 nM	COc1ccccc1-c1cc(C2=CCCN(C(=O)CCn3ccnn3)C2)c(F)c2[nH]c(C(=O)N3Cc4cccc(F)c4C3)cc12 [Example I-982]
< 100 nM	CCc1ccccc1-c1cc(C2=CCCN(C(=O)CCn3cccn3)C2)c(F)c2[nH]c(C(=O)N3CCN(c4ncc(F)cc4OC)CC3)cc12 [Example I-662]
< 100 nM	CCn1ncc2c1CN(C(=O)c1cc(-c3ccccc3OC)c3c(c1)cc(C1=CCCN(C(=O)CCn4ccnn4)C1)n3CC1CC1)C2 [Example I-530]
< 100 nM	COc1cc(F)cnc1N1CCN(C(=O)c2cc3c(-c4cnccc4C(C)C)cc(C4=CCCN(C(=O)CCn5cccn5)C4)c(F)c3[nH]2)CC1 [Example I-669]
10000 to 100000 nM	COc1ccccc1-c1cc(C2=CCCN(C(=O)CCn3ccnn3)C2)c(F)c2[nH]c(C(=O)N3CCN(C4CC(F)(F)C4)CC3)cc12 [Example I-501]
10000 to 100000 nM	CCc1ccncc1-c1cc(C2=CCCN(C(=O)CCn3ccnn3)C2)c(F)c2[nH]c(C(=O)N3Cc4cnn(C)c4C3)cc12 [Example I-704]
100 to 1000 nM	COc1ccccc1-c1cc(C2=CCCN(C(=O)CCn3ccnn3)C2)c(F)c2[nH]c(C(=O)N3CCN(c4cc(O)cc5ccccc45)CC3)cc12 [Example I-930]
< 100 nM	Cc1c[nH]c2ncc(-c3cc(C4=CCCN(C(=O)CCn5ccnn5)C4)c(F)c4cc(C(=O)N(C)C)oc34)cc12 [Example I-1100]
100 to 1000 nM	CN(C)C(=O)c1cc2ccc(C3CCCN(C(=O)CCn4ccnn4)C3)cc2[nH]1 (stereo not drawn) [Example I-1188]
10000 to 100000 nM	CCc1ccncc1-c1cc(C2=CCCN(C(C)=O)C2)c(F)c2[nH]c(C(=O)N3Cc4cnn(C)c4C3)cc12 [Example I-702]
< 100 nM	COc1cc(N)ccc1-c1cc(C2=CCCN(C(=O)CCn3ccnn3)C2)c(F)c2[nH]c(C(=O)N3CCN(c4ncccc4OC)CC3)cc12 [Example I-571]
< 100 nM	COc1ccccc1-c1cc(C2=CCCN(C(=O)CCn3ccnn3)C2)c(F)c2[nH]c(C(=O)N3CCN(CC4(C#N)CC4)CC3)cc12 [Example I-1014]
< 100 nM	COc1cc(F)cnc1N1CCN(C(=O)c2cc3c(-c4ccc(C)c5ncccc45)cc(C4=CCCN(C(=O)CCn5ccnn5)C4)c(F)c3[nH]2)CC1 [Example I-635]
